Experimental data as given in article PMC8583417, “Evaluation of the Antimicrobial Efficacy of N-Acetyl-L-Cysteine, Rhamnolipids, and Usnic Acid—Novel Approaches to Fight Food-Borne Pathogens” (International Journal of Molecular Sciences, 2021).

Assays:
[1] = system: S. Enteritidis ATCC 13076; assay: MIC for further growth of biofilm cells, preformed biofilm (A625nm); type: cell-based, Salmonella enterica Enteritidis; conditions: for MICBC80: ≥80% inhibition, 18 h preformed biofilm, 20 h with substance
Method: (§1) Ten concentrations of NAC, RLs, and UA were tested to determine the minimum inhibitory concentration for planktonic growth, and subsequently, the six highest concentrations were applied on preformed biofilms to evaluate the biofilm eradication ability of the compounds. MIC was defined as the lowest substance concentration able to inhibit at least 80% of microbial growth (MICPC80 for planktonic cells, MICBC80 for further growth of biofilm cells), inhibit 80% of metabolic activity (MICBM80 for biofilm metabolic activity, MICMPB80 for metabolic activity of preformed biofilm), prevent biofilm formation by at least 80% (MICBF80 for biofilm formation), or reduce a preformed biofilm by at least 80% (MICBR80 for biofilm reduction). The results of MICs are summarized in Table 1 (planktonic cells) and Table 2 (biofilm-associated cells).
The determination of MICs was performed according to Chlumsky et al.. […] To evaluate planktonic cells growth (MICPC80) and further growth of biofilm cells (MICBC80), the optical density of the content of the microtiter plates was measured spectrophotometrically at 625 nm before and after 24 h (for biofilm formation) of cultivation or before and after additional 20 h incubation with the tested compound (for preformed biofilm). […] To evaluate the inhibition of biofilm formation (MICBF80) and reduction in preformed biofilms (MICBR80), biomass was quantified using crystal violet staining, and its metabolic activity (MICBM80 and MICMPB80) was estimated by using the MTT (thiazyl tetrazolium bromide, Sigma-Aldrich, USA) reduction assay, both measured spectrophotometrically at 595 nm.
All inhibitions were calculated using the formula of Chlumsky et al. below (Equation (1)):(1) A625(595)nm inhibition (%)=A625(595)nm (control) – A625(595)nm(natural substance)/A625(595)nm (control)× 100 where A625(595)nm (control) is the absorbance of bacterial suspension/biofilm itself, and A625(595)nm(natural substance) is the absorbance of the bacterial suspension/biofilm with the added natural substance (NAC, RLs, and UA). […]

E. coli 683/17 = assay: MIC for metabolic activity of preformed biofilm (MTT reduction assay); type: cell-based, Escherichia coli; conditions: for MICMPB80: ≥80% inhibition, 20 h with substance
Method: as §1
(§2) The determination of MICs was performed according to Chlumsky et al.. Briefly, 96-well flat-bottomed microtiter plates were inoculated with 75 µL (for biofilm formation) or 100 µL (for preformed biofilm) of bacterial suspension (A625nm 0.08 to 0.1) in technical triplicates and were then carefully mixed with the dilution series of the test substances (24 h cultivation at 25 °C for S. Infantis, 37 °C for other strains) or were directly cultivated to preform biofilms (18 h). For a positive control of bacterial growth, the inoculum was mixed with a pure sterile medium. Furthermore, the sterile medium was included in the plate as a marker of potential microbial contamination. To evaluate planktonic cells growth (MICPC80) and further growth of biofilm cells (MICBC80), the optical density of the content of the microtiter plates was measured spectrophotometrically at 625 nm before and after 24 h (for biofilm formation) of cultivation or before and after additional 20 h incubation with the tested compound (for preformed biofilm). The difference of A625nm was considered as a measure of the ability of cells to grow in the presence of the tested substances. To evaluate the inhibition of biofilm formation (MICBF80) and reduction in preformed biofilms (MICBR80), biomass was quantified using crystal violet staining, and its metabolic activity (MICBM80 and MICMPB80) was estimated by using the MTT (thiazyl tetrazolium bromide, Sigma-Aldrich, USA) reduction assay, both measured spectrophotometrically at 595 nm.
(§3) All inhibitions were calculated using the formula of Chlumsky et al. below (Equation (1)):(1) A625(595)nm inhibition (%)=A625(595)nm (control) – A625(595)nm(natural substance)/A625(595)nm (control)× 100 where A625(595)nm (control) is the absorbance of bacterial suspension/biofilm itself, and A625(595)nm(natural substance) is the absorbance of the bacterial suspension/biofilm with the added natural substance (NAC, RLs, and UA).
(§4) When the minimum inhibitory concentration could not be determined, the MIC was established as >the highest tested concentration for NAC, RLs, and UA.

E. coli 693/17 = assay: as above; type: cell-based, Escherichia coli
Method: as §1, §2, §3, §4

[2] = system: S. Enteritidis ATCC 13076; assay: CLSM analysis, biofilm removal (preformed biofilm); type: cell-based, Salmonella enterica Enteritidis; conditions: 20 h exposure, mean ± SD; for Thickness (µm) subCBM80: substance at subinhibitory concentration
Method: Biofilm prevention and removal analyses were performed using previously determined minimum inhibitory and subinhibitory concentrations for metabolic activity (MICBM80, subCBM80; MICMPB80, subCMPB80) of NAC, RLs, and UA specific for each tested strain. Selected concentrations were used to evaluate the inhibition of biofilm formation (biofilm prevention) and the reduction in previously formed biofilms (biofilm removal) for the same set of microorganisms, with the exception of S. Infantis, which was excluded from the analysis due to its inability to form biofilm in the selected microtiter plate. Biofilm prevention and removal were observed using CLSM with specific staining to distinguish between live and membrane-compromised cells. Images were analyzed to evaluate (i). the total volume of the biomass, (ii). ratios of live and membrane-compromised cells, and (iii). to calculate biofilm volume reduction for individual organisms after the respective treatment types. The total biofilm volume was normalized by the area of the well and expressed as an average biofilm thickness. Complete data are provided in Supplementary Materials (Tables S1–S8).
At first, bacterial suspensions were cultivated in microtiter plates to produce overnight biofilms (18 h). […] cells were then washed out, and the remaining biofilms were further cultivated for an additional 20 h with selected compounds. Following biofilm cultivation, biomass was observed using CLSM with live/membrane-compromised cell staining. Biomass images from biofilm removal treatments were similar to results from biofilm prevention, where biomass was highly diversified across the bacterial species and strains. Visually, biomass images were fairly consistent within the quadruplicates for each tested organism. Non-treated biofilms of S. aureus contained consistent biomass spread across the well (S. aureus 816) or grown around the edges (S. aureus 1241). […]
For both inhibition and reduction of biofilms, overnight cultures from BHI were diluted in TSB + 1% Glc to reach an absorbance of 0.08 to 0.1 at 625 nm. […]

L. monocytogenes 149 = assay: MIC for reduction of preformed biofilm (crystal violet staining); type: cell-based, Listeria monocytogenes; conditions: for MICBR80: ≥80% reduction of preformed biofilm (18 h), 20 h with substance
Method: as §1, §2, §3, §4

S. aureus 816 = assay: MIC for biofilm metabolic activity (MTT reduction assay); type: cell-based, Staphylococcus aureus; conditions: ≥80% inhibition, 24 h
Method: as §1
as §2, with “Furthermore, the sterile medium was included in the plate as a marker of potential microbial contamination.” left out, “The difference of A625nm was considered as a measure of the ability of cells to grow in the presence of the tested substances.” left out
as §3, §4

S. aureus 1241 = assay: as above; type: cell-based, Staphylococcus aureus; conditions: ≥80% inhibition, 24 h
Method: as §1
as §2, with “Furthermore, the sterile medium was included in the plate as a marker of potential microbial contamination.” left out, “The difference of A625nm was considered as a measure of the ability of cells to grow in the presence of the tested substances.” left out
as §3, §4

Row | SMILES | maximal achieved inhibition (MICBC80 not reached) ([1]; within tested concentrations) | MICBC80 [1] | maximal achieved inhibition (MICMPB80 not reached) (E. coli 683/17; within tested concentrations) | MICMPB80 (E. coli 683/17) | maximal achieved inhibition (MICMPB80 not reached) (E. coli 693/17; within tested concentrations) | Thickness (µm) subCBM80 [2] | maximal achieved inhibition (MICBR80 not reached), biofilm reduction (L. monocytogenes 149; preformed biofilm, within tested concentrations) | MICBR80 (L. monocytogenes 149) | MICBM80 (S. aureus 816) | MICBM80 (S. aureus 1241) | MICMPB80 (E. coli 693/17; ≥80% inhibition, 20 h with substance) | Thickness (µm) MICBM80 ([2]; substance at its MIC)
1 | CC(=O)c1c(O)c(C)c(O)c2c1OC1=CC(=O)C(C(C)=O)C(=O)C12C (single isomer, unassigned; (+)) [UA, (+)-usnic acid] | 51% | > 31.3 µg/mL | 45% | > 31.3 µg/mL | 20% | 203 ± 19.8 µm | 69% | > 31.3 µg/mL | 0.24 µg/mL | 0.49 µg/mL |  | 
2 | CC(=O)N[C@@H](CS)C(=O)O [NAC, N-Acetyl-L-cysteine] |  | 6250 µg/mL |  | 12,500 µg/mL |  | 229 ± 54.9 µm |  | 100,000 µg/mL | 3130 µg/mL | 6250 µg/mL | 12,500 µg/mL | 212 ± 16.6 µm
